Columns and labels:
2B4/BCL-2 = experiment: caspase activation in 2B4/MCL-1 versus 2B4/BCL-2 cells, late-stage follow-up, selectivity assay for MCL1-BIM inhibitor project, cell-based, fluorescence, assay provider data (AID 493062); conditions: 2B4/MCL-1 caspase activation fluorescence
2B4/MCL-1 = experiment: as above; conditions: 2B4/MCL-1 caspase activation fluorescence

SMILES | EC50 (2B4/BCL-2) | EC50 (2B4/MCL-1)
CCCCN(C(=O)c1cc(-c2ccco2)nc2ccccc12)c1c(N)n(CCCC)c(=O)[nH]c1=O | > 25 µM | > 25 µM
NS(=O)(=O)c1ccc(CCNC(=O)c2cc(-c3ccco3)nc3ccccc23)cc1 | > 25 µM | > 25 µM
O=C(Nc1nccs1)c1cc(-c2ccco2)nc2ccccc12 | > 25 µM | > 25 µM
COc1ccc(Cc2nnc(NC(=O)Cc3cccnc3)s2)cc1OC | > 25 µM | > 25 µM
CN(C)C(=O)c1ccc(NC(=O)c2cc(-c3ccco3)nc3ccccc23)cc1 | > 25 µM | > 25 µM
COCCN(C(=O)c1cc(-c2ccco2)nc2ccccc12)c1c(N)n(Cc2ccccc2)c(=O)[nH]c1=O | > 25 µM | > 25 µM
COc1cccc(NC(=O)c2cc(-c3ccc(C)o3)nc3ccccc23)c1 | > 25 µM | > 25 µM
O=C(Nc1cccc(S(=O)(=O)NC2=NCCC2)c1)c1cc(-c2ccco2)nc2ccccc12 | > 25 µM | > 25 µM
COc1ccc(NC(=O)c2cc(-c3ccco3)nc3ccccc23)cc1S(=O)(=O)N1CCOCC1 | > 25 µM | > 25 µM
COc1ccc(Cc2nnc(NC(=O)Cc3ccc4c(c3)OCO4)s2)cc1OC | > 25 µM | > 25 µM
O=C(c1cc(-c2ccco2)nc2ccccc12)N1CCN(c2ccc(F)cc2)CC1 | > 25 µM | > 25 µM
COc1ccc(-c2cc(=O)oc3cc(OCC(=O)N4CC4)ccc23)cc1 | > 25 µM | > 25 µM
CCc1nnc(NC(=O)c2cc(-c3ccco3)nc3ccccc23)s1 | > 25 µM | > 25 µM
CCCN(C(=O)c1cc(-c2ccco2)nc2ccccc12)c1c(N)n(Cc2ccccc2)c(=O)[nH]c1=O | > 25 µM | > 25 µM
O=C(NC1CC1)c1cc(-c2ccco2)nc2ccccc12 | > 25 µM | > 25 µM
O=C(NC1CCC(O)CC1)c1cc(-c2ccco2)nc2ccccc12 (stereo not given) | > 25 µM | > 25 µM
O=C(Nc1nc2ccccc2s1)c1cc(-c2ccco2)nc2ccccc12 | > 25 µM | > 25 µM
O=C(c1cc(-c2ccco2)nc2ccccc12)N1CCCC(C(F)(F)F)C1 (stereo not given) | > 25 µM | > 25 µM
COc1ccc(Cc2nnc(NC(=O)c3cc(-c4ccco4)nc4ccccc34)s2)cc1OC | > 25 µM | > 25 µM
Cc1csc(NC(=O)c2cc(-c3ccco3)nc3ccccc23)n1 | > 25 µM | > 25 µM
COc1ccc(Cc2nnc(NC(=O)C(=O)c3ccco3)s2)cc1OC | > 25 µM | > 25 µM
CCCCCCNC(=O)c1cc(-c2ccco2)nc2ccccc12 | > 25 µM | > 25 µM
Cc1ccc(-c2cc(C(=O)Nc3cccnc3)c3ccccc3n2)o1 | > 25 µM | > 25 µM
Cc1ccc(S(=O)(=O)N(C)C)cc1NC(=O)c1cc(-c2ccco2)nc2ccccc12 | > 25 µM | > 25 µM

SMILES | EC50 (2B4/BCL-2) | EC50 (2B4/MCL-1)
COc1ccc(Cc2nnc(NC(=O)C(F)c3ccccc3)s2)cc1OC (stereo not given) | > 25 µM | > 25 µM
CCCCn1c(N)c(N(CCC(C)C)C(=O)c2cc(-c3ccco3)nc3ccccc23)c(=O)[nH]c1=O | > 25 µM | > 25 µM
Cc1ccc(-c2cc(C(=O)N(C)CC(=O)Nc3ccccc3Br)c3ccccc3n2)o1 | > 25 µM | > 25 µM
COc1ccc(CCNC(=O)c2cc(-c3ccco3)nc3ccccc23)cc1 | > 25 µM | > 25 µM
O=C(CCn1nnc2ccccc21)Nc1nnc(Cc2ccccc2)s1 | > 25 µM | > 25 µM
Cc1ccc(NC(=O)c2cc(-c3ccco3)nc3ccccc23)cc1S(=O)(=O)N1CCOCC1 | > 25 µM | > 25 µM
Cc1ccc(NC(=O)c2cc(-c3ccc(C)o3)nc3ccccc23)nc1 | > 25 µM | > 25 µM
CN(CCOc1ccccc1)C(=O)c1cc(-c2ccco2)nc2ccccc12 | > 25 µM | > 25 µM
COc1ccc(Cc2nnc(NC(=O)Cc3cc(F)cc(F)c3)s2)cc1OC | > 25 µM | > 25 µM
CCCn1c(N)c(N(CCOC)C(=O)c2cc(-c3ccco3)nc3ccccc23)c(=O)[nH]c1=O | > 25 µM | > 25 µM
COc1ccc(Cc2nnc(NC(=O)Cc3ccc(-c4ccccc4)cc3)s2)cc1OC | > 25 µM | > 25 µM
CN(CCOc1ccc(Cl)cc1)C(=O)c1cc(-c2ccco2)nc2ccccc12 | > 25 µM | > 25 µM
COc1ccc(Cc2nnc(NC(=O)Cc3cccc(Br)c3)s2)cc1OC | > 25 µM | > 25 µM
COc1cccc(CC(=O)Nc2nnc(Cc3ccc(OC)c(OC)c3)s2)c1 | > 25 µM | > 25 µM
O=C(Nc1ccccc1N1CCOCC1)c1cc(-c2ccco2)nc2ccccc12 | > 25 µM | > 25 µM
CCOC(=O)c1cc(-c2ccco2)nc2c1c(C)nn2-c1cccc(Cl)c1 | > 25 µM | > 25 µM
CCc1nnc(NC(=O)c2cc(-c3ccc(C)o3)nc3ccccc23)s1 | > 25 µM | > 25 µM
Cc1ccc2nc(NC(=O)c3cc(-c4ccco4)nc4ccccc34)sc2c1 | > 25 µM | > 25 µM
O=C(Nc1cccc(F)c1)c1cc(-c2ccco2)nc2ccccc12 | > 25 µM | > 25 µM
COc1ccc(Cc2nnc(NC(=O)Cc3ccc(C)cc3)s2)cc1OC | > 25 µM | > 25 µM
Cc1ccc(-c2cc(C(=O)Nc3nccs3)c3ccccc3n2)o1 | > 25 µM | > 25 µM
CC1CCCN(C(=O)c2cc(-c3ccco3)nc3ccccc23)C1 (stereo not given) | > 25 µM | > 25 µM
Cc1ccc(-c2cc(C(=O)NCC(c3ccccc3)N(C)C)c3ccccc3n2)o1 (stereo not given) | > 25 µM | > 25 µM
CCN(CC)C(=O)COc1ccc2c(-c3ccccc3)cc(=O)oc2c1 | > 25 µM | > 25 µM

Second part, the molecule after the results:

EC50 (2B4/BCL-2) | EC50 (2B4/MCL-1) | SMILES
> 25 µM | > 25 µM | Cc1ccc(-c2cc(C(=O)N3CCN(c4ncccn4)CC3)c3cc(Br)ccc3n2)o1
> 25 µM | > 25 µM | CN(CC(=O)Nc1cccc(F)c1)C(=O)c1cc(-c2ccco2)nc2ccccc12
> 25 µM | > 25 µM | Cc1ccc(-c2cc(C(=O)NCCCn3ccnc3)c3cc(Br)ccc3n2)o1
> 25 µM | > 25 µM | COc1ccc(NC(=O)c2cc(-c3ccc(C)o3)nc3ccccc23)cc1OC
> 25 µM | > 25 µM | COc1ccc(Cc2nnc(NC(=O)C3(c4ccccc4)CC3)s2)cc1OC
> 25 µM | > 25 µM | COc1ccc(Cc2nnc(NC(=O)Cc3ccc(N(C)C)cc3)s2)cc1OC
> 25 µM | > 25 µM | COc1ccc(NC(=O)c2cc(-c3ccc(C)o3)nc3ccccc23)cc1
> 25 µM | > 25 µM | COc1ccc(Cc2nnc(NC(=O)Cc3cccs3)s2)cc1OC
> 25 µM | > 25 µM | COc1cccc(NC(=O)c2cc(-c3ccco3)nc3ccccc23)c1
25 µM | 40 µM | Cc1cccc(NC(=O)c2cc(-c3ccc(C)o3)nc3ccccc23)n1
> 25 µM | > 25 µM | COc1ccc(Cc2nnc(NC(=O)Cc3ccc4ccccc4c3)s2)cc1OC
> 25 µM | > 25 µM | Cc1ccc(-c2cc(C(=O)N3CCCC(C(F)(F)F)C3)c3ccccc3n2)o1 (stereo not given)
> 25 µM | > 25 µM | COc1ccc(Cc2nnc(NC(=O)Cc3cccs3)s2)cc1
> 25 µM | > 25 µM | Cc1ccc(-c2cc(C(=O)NCCN3CCOCC3)c3ccccc3n2)o1
> 25 µM | > 25 µM | CCCC(=O)Nc1nnc(Cc2ccccc2)s1
> 25 µM | > 25 µM | O=C(c1cc(-c2ccco2)nc2ccccc12)N1CCN(Cc2ccccc2)CC1
> 25 µM | > 25 µM | Cc1nnc(NC(=O)c2cc(-c3ccco3)nc3ccccc23)s1
> 25 µM | > 25 µM | Cc1ccc(-c2cc(C(=O)N3CCN(c4ccccc4O)CC3)c3ccccc3n2)o1
> 25 µM | > 25 µM | CC(=O)c1cccc(NC(=O)c2cc(-c3ccco3)nc3ccccc23)c1

EC50 (2B4/BCL-2) | EC50 (2B4/MCL-1) | SMILES
> 25 µM | > 25 µM | COc1cccc(NC(=O)CN(C)C(=O)c2cc(-c3ccco3)nc3ccccc23)c1
1.5 µM | 0.8 µM | COc1ccc(Cc2nnc(NC(=O)CCc3ccco3)s2)cc1OC
> 25 µM | 12 µM | Cc1ccnc(NC(=O)c2cc(-c3ccco3)nc3ccc(Br)cc23)c1
> 25 µM | > 25 µM | COc1ccc(Cc2nnc(NC(=O)Cc3csc4ccccc34)s2)cc1OC
> 25 µM | > 25 µM | COc1ccc(Cc2nnc(NC(=O)Cc3ccsc3)s2)cc1OC
> 25 µM | > 25 µM | COCCCN(C(=O)c1cc(-c2ccco2)nc2ccccc12)c1c(N)n(Cc2ccccc2)c(=O)[nH]c1=O
> 25 µM | > 25 µM | COC(=O)C1CCN(C(=O)c2cc(-c3ccco3)nc3ccccc23)CC1
> 25 µM | > 25 µM | Cc1ccc(-c2cc(C(=O)Nc3ccccn3)c3ccccc3n2)o1
> 25 µM | > 25 µM | Cc1ccc(-c2cc(C(=O)Nc3cccc(S(=O)(=O)N(C)C)c3)c3ccccc3n2)o1
> 25 µM | > 25 µM | O=C(c1cc(-c2ccco2)nc2ccccc12)N(Cc1nnc(-c2ccc(Cl)cc2)o1)C1CC1
> 25 µM | > 25 µM | CN(C)C(CNC(=O)c1cc(-c2ccco2)nc2ccccc12)c1ccccc1 (stereo not given)
> 25 µM | > 25 µM | COc1ccc(Cc2nnc(NC(=O)Cc3c[nH]c4ccccc34)s2)cc1OC
> 25 µM | > 25 µM | COc1ccccc1NC(=O)c1cc(-c2ccc(C)o2)nc2ccccc12
> 25 µM | > 25 µM | CC(=O)N1CCN(C(=O)c2cc(-c3ccc(C)o3)nc3ccccc23)CC1
> 25 µM | > 25 µM | Cc1ccc(-c2cc(C(=O)N3CCN(c4ccc(F)cc4)CC3)c3ccccc3n2)o1
7.5 µM | 11 µM | COc1ccc(Cc2nnc(NC(=O)c3cc(-c4ccco4)nc4ccc(Br)cc34)s2)cc1OC
0.6 µM | 25 µM | Cc1cccc(NC(=O)c2cc(-c3ccco3)nc3ccc(Br)cc23)n1
40 µM | 40 µM | Cc1ccnc(NC(=O)c2cc(-c3ccc(C)o3)nc3ccccc23)c1
